# Results reported in patent publication US20230167073A1 (Teijin Pharma Limited, priority 2020, published 2023).
# Biological target: T1, Human TRPC6 (Homo sapiens, UniProt Q9Y210)
# T1 construct: expressed in transfected cells
# T1 sequence (Q9Y210 1-931): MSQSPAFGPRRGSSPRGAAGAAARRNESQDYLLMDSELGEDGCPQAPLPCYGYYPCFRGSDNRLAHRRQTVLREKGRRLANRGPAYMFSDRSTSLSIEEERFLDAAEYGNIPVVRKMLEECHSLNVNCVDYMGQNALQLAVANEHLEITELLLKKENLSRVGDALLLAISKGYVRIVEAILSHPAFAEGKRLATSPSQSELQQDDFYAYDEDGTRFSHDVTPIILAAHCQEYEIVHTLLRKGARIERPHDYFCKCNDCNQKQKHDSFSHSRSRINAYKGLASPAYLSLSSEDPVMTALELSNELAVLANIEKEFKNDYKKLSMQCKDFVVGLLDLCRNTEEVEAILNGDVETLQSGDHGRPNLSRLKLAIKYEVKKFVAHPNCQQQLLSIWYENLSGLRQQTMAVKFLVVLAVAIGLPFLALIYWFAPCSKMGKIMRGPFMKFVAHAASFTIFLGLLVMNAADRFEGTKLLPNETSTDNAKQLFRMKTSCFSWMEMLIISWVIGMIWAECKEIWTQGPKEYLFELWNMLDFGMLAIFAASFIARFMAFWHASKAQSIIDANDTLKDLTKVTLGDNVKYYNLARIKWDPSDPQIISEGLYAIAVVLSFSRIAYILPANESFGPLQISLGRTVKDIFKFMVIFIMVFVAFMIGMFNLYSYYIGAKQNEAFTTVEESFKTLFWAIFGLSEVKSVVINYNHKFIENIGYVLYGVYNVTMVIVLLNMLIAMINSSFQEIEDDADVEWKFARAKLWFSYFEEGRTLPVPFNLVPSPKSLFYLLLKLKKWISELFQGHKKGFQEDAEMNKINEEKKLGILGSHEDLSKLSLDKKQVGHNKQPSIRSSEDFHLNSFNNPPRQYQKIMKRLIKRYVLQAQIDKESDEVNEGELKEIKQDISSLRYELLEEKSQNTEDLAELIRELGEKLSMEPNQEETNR
# Experiment: Evaluation of TRPC6 channel inhibitory activity (1), FLIPR Calcium 5 Assay Kit, OAG stimulation (Compound Nos. 1-1293)
# Format: cell-based
# Details: Human TRPC6 stably-expressing cells, OAG 30 μM, FLIPR Calcium 5 Assay Kit; read-out: Inhibitory activity (pIC50 class) (converted)
# Method in brief: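 Readout is pIC50 from four-parameter logistic fitting of inhibition of the OAG-evoked (30 μM final) fluorescence calcium signal. Human TRPC6 stable cells are dye-loaded with probenecid, and compound is applied 20 min ahead of agonist.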
row,IC50 [nM],Compound
1,> 1000,"Cn1nc(C2CC2)cc1Oc1cc(C#N)ccc1-c1cccc2c(N)nccc12 [compound 453, 4-(1-aminoisoquinolin-5-yl)-3-(5-cyclopropyl-2-methylpyrazol-3-yl)oxybenzonitrile]"
2,10 to 1000,"Cn1nc(N2CCCCC2)cc1Cc1cc(C#N)ccc1-c1ncc(CN)cn1 [compound 1213, 4-[5-(aminomethyl)pyrimidin-2-yl]-3-[(2-methyl-5-piperidin-1-ylpyrazol-3-yl)methyl]benzonitrile]"
3,10 to 1000,"CN(C)c1cc(Sc2cc(C#N)ccc2-c2ccc(CN)cn2)cnn1 [compound 1266, 4-[5-(aminomethyl)pyridin-2-yl]-3-[6-(dimethylamino)pyridazin-4-yl]sulfanylbenzonitrile]"
4,< 10,"Cc1nc(OCC(C)C)cc(Oc2cc(C#N)ccc2-n2cc([C@@H](O)CN)cn2)n1 [Compound 267, 4-[4-[(1R)-2-amino-1-hydroxyethyl]pyrazol-1-yl]-3-[2-methyl-6-(2-methylpropoxy)pyrimidin-4-yl]oxybenzonitrile]"
5,< 10,"Cc1cc(Oc2cc(C#N)ccc2-n2cc(C(O)CN)cn2)cc(N2CCOCC2)n1 (stereo not shown) [Compound 241, 4-[4-(2-amino-1-hydroxyethyl)pyrazol-1-yl]-3-(2-methyl-6-morpholin-4-ylpyridin-4-yl)oxybenzonitrile]"
6,< 10,"Cc1cc(Oc2cc(C#N)ccc2-c2ncc(CCN)cn2)cc(N2CCOC[C@H]2C)n1 [compound 470, 4-[5-(2-aminoethyl)pyrimidin-2-yl]-3-[2-methyl-6-[(3R)-3-methylmorpholin-4-yl]pyridin-4-yl]oxybenzonitrile]"
7,10 to 1000,"Cc1nc(Oc2cc(C#N)ccc2-c2ccc(CCN)cc2)cc(N2CC(F)(F)C2)n1 [Compound 24, 4-[4-(2-aminoethyl)phenyl]-3-[6-(3,3-difluoroazetidin-1-yl)-2-methylpyrimidin-4-yl]oxybenzonitrile]"
8,10 to 1000,"Cc1nc(Oc2cc(C#N)ccc2-c2ncc(CCN)cn2)cc(-c2ncc(C)s2)n1 [compound 602, 4-[5-(2-aminoethyl)pyrimidin-2-yl]-3-[2-methyl-6-(5-methyl-1,3-thiazol-2-yl)pyrimidm-4-yl]oxybenzonitrile]"
9,> 1000,"Cc1nc(Oc2cc(C#N)ccc2-c2ccc3c(c2)CNCC3)cc(N2CCOCC2)n1 [Compound 95, 3-(2-methyl-6-morpholin-4-ylpyrimidin-4-yl)oxy-4-(1,2,3,4-tetrahydroisoquinolin-7-yl)benzonitrile]"
10,< 10,"Cn1nc(N2CCCC2)cc1Oc1cc(F)ccc1-c1ccc(CN)cn1 [compound 996, [6-[4-fluoro-2-(2-methyl-5-pyrrolidin-1-ylpyrazol-3-yl)oxyphenyl]pyridin-3-yl]methanamine]"
11,10 to 1000,"Cc1nc(Oc2cc(C#N)ccc2-c2ccc(CCN)nc2)cc(-c2cccc(F)c2)n1 [Compound 167, 4-[6-(2-aminoethyl)pyridin-3-yl]-3-[6-(3-fluorophenyl)-2-methylpyrimidin-4-yl]oxybenzonitrile]"
12,> 1000,"Cn1nc(C2CC2)cc1Oc1cc(C#N)ccc1-c1ccc(N2CC[C@@H](F)[C@H](N)C2)cn1 [compound 869, 4-[5-[(4R)-3-amino-4-fluoropiperidin-1-yl]pyridin-2-yl]-3-(5-cyclopropyl-2-methylpyrazol-3-yl)oxybenzonitrile]"
13,10 to 1000,"Cc1nc(Oc2cc(C#N)ccc2-n2cc([C@@H](O)CN)cn2)cc(-c2ccccc2C(F)(F)F)n1 [compound 351, 4-[4-[(1R)-2-amino-1-hydroxyethyl]pyrazol-1-yl]-3-[2-methyl-6-[2-(trifluoromethyl)phenyl]pyrimidin-4-yl]oxybenzonitrile]"
14,< 10,"N#Cc1ccc(-c2ccc(CCN)cn2)c(Sc2cnnc(N3CCCCC3)c2)c1 [compound 1243, 4-[5-(2-aminoethyl)pyridin-2-yl]-3-(6-piperidin-1-ylpyridazin-4-yl)sulfanylbenzonitrile]"
15,10 to 1000,"N#Cc1ccc(-c2ncc(CCN)cn2)c(Sc2cnnc(N3CCOCC3)c2)c1 [compound 1257, 4-[5-(2-aminoethyl)pyrimidin-2-yl]-3-(6-morpholin-4-ylpyridazin-4-yl)sulfanylbenzonitrile]"
16,< 10,"CCCN(C)c1cc(Oc2cc(C#N)ccc2-c2ncc(CCN)cn2)n(C)n1 [compound 770, 4-[5-(2-aminoethyl)pyrimidin-2-yl]-3-[2-methyl-5-[methyl(propyl)amino]pyrazol-3-yl]oxybenzonitrile]"
17,10 to 1000,"Cc1c(C(=O)c2cc(C#N)ccc2-c2ncc(CCN)cn2)cnn1CC1CC1 [compound 1034, 4-[5-(2-aminoethyl)pyrimidin-2-yl]-3-[1-(cyclopropylmethyl)-5-methylpyrazole-4-carbonyl]benzonitrile]"
18,< 10,"Cn1nc(C(C)(C)C)cc1C(O)c1cc(C#N)ccc1-c1ccc(CN)cn1 (stereo not shown) [compound 1233, 4-[5-(aminomethyl)pyridin-2-yl]-3-[(5-tert-butyl-2-methylpyrazol-3-yl)-hydroxymethyl]benzonitrile]"
19,< 10,"CNc1cc(C(=O)c2cc(C#N)ccc2-c2ccc(CCN)cn2)n(C)n1 [compound 1075, 4-[5-(2-aminoethyl)pyridin-2-yl]-3-[2-methyl-5-(methylamino)pyrazole-3-carbonyl]benzonitrile]"
20,< 10,"Cc1scnc1-c1cc(Oc2cc(C#N)ccc2-c2ncc(CN)cn2)n(C)n1 [compound 963, 4-[5-(aminomethyl)pyrimidin-2-yl]-3-[2-methyl-5-(5-methyl-1,3-thiazol-4-yl)pyrazol-3-yl]oxybenzonitrile]"
21,< 10,"N#Cc1ccc(-c2ncc(CCN)cn2)c(Sc2cnnc(N3CCCCC3)c2)c1 [compound 1258, 4-[5-(2-aminoethyl)pyrimidin-2-yl]-3-(6-piperidin-1-ylpyridazin-4-yl)sulfanylbenzonitrile]"
22,10 to 1000,"NCCc1cnc(-c2ccc(Cl)cc2Oc2cnn(CC(F)(F)F)c2)nc1 [compound 1023, 2-[2-[4-chloro-2-[1-(2,2,2-trifluoroethyl)pyrazol-4-yl]oxyphenyl]pyrimidin-5-yl]ethanamine]"
23,10 to 1000,"NCCc1ccc(-c2ccc(F)cc2Oc2cnnc(N3CCOCC3)c2)nc1 [compound 1006, 2-[6-[4-fluoro-2-(6-morpholin-4-ylpyridazin-4-yl)oxyphenyl]pyridin-3-yl]ethanamine]"
24,< 10,"N#Cc1ccc(-c2ccc(CCN)cn2)c(Cn2cnc(-c3ccccc3)c2)c1 [Compound No. 1131, 4-[5-(2-Aminoethyl)pyridin-2-yl]-3-[(4-phenylimidazol-1-yl)methyl]benzonitrile]"
25,< 10,"Cn1nc(N2CCCC2)cc1Cc1cc(C#N)ccc1-c1ncc(CN)cn1 [compound 1210, 4-[5-(aminomethyl)pyrimidin-2-yl]-3-[(2-methyl-5-pyrrolidin-1-ylpyrazol-3-yl)methyl]benzonitrile]"
26,> 1000,"Cc1cc(Oc2cc(C#N)ccc2-c2ncc(C3(N)CC3)cn2)cc(N2CCOCC2)n1 [compound 462, 4-[5-(1-aminocyclopropyl)pyrimidin-2-yl]-3-(2-methyl-6-morpholin-4-ylpyridin-4-yl)oxybenzonitrile]"
27,< 10,"N#Cc1ccc(-c2ncc(CCN)cn2)c(Oc2cnnc(-c3ccccc3)c2)c1 [Compound 277, 4-[5-(2-aminoethyl)pyrimidin-2-yl]-3-(6-phenylpyridazin-4-yl)oxybenzonitrile]"
28,> 1000,"Cn1nc(C2CC2)cc1Oc1cc(C#N)ccc1-c1cc(C(=O)N2CCC[C@@H](N)C2)ccn1 [compound 554, 4-[4-[(3R)-3-aminopiperidine-1-carbonyl]pyridin-2-yl]-3-(5-cyclopropyl-2-methylpyrazol-3-yl)oxybenzonitrile]"
29,10 to 1000,"Cc1cc(Oc2cc(C#N)ccc2-c2ccc([C@H](O)CN)cn2)cc(-c2ncco2)n1 [compound 690, 4-[5-[(1S)-2-amino-1-hydroxyethyl]pyridin-2-yl]-3-[2-methyl-6-(1,3-oxazol-2-yl)pyridin-4-yl]oxybenzonitrile]"
30,< 10,"Cn1nc(-c2ccccc2)cc1Oc1cc(C#N)ccc1-c1cnc(CCN)cn1 [compound 313, 4-[5-(2-aminoethyl)pyrazin-2-yl]-3-(2-methyl-5-phenylpyrazol-3-yl)oxybenzonitrile]"

row,Compound,IC50 [nM]
1,"CC(C)(C)CCOc1cc(Oc2cc(C#N)ccc2-c2ccc(CCN)cc2)cnn1 [Compound 126, 4-[4-(2-aminoethyl)phenyl]-3-[6-(3,3-dimethylbutoxy)pyridazin-4-yl]oxybenzonitrile]",> 1000
